Results reported in PubChem BioAssay (NCI).
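Here, GI50 denotes the concentration required for 50% inhibition of growth. TGI: concentration producing complete growth inhibition.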

Experiments:
Test in all cases: DTP human tumour cell line panel, 384-well format
MALME-3M melanoma = test system: MALME-3M melanoma
MOLT-4 leukemia = test system: MOLT-4 leukemia
KM12 colon = test system: KM12 colon
HCC-2998 colon = test system: HCC-2998 colon
NCI-H460 NSCLC = test system: NCI-H460 NSCLC
HCT-116 colon = test system: HCT-116 colon
SNB-19 CNS = test system: SNB-19 CNS
OVCAR-5 ovarian = test system: OVCAR-5 ovarian
M14 melanoma = test system: M14 melanoma
HS 578T breast = test system: HS 578T breast
ACHN renal = test system: ACHN renal
LOX IMVI melanoma = test system: LOX IMVI melanoma
SK-MEL-5 melanoma = test system: SK-MEL-5 melanoma
HT29 colon = test system: HT29 colon
SK-OV-3 ovarian = test system: SK-OV-3 ovarian
UO-31 renal = test system: UO-31 renal
RPMI-8226 leukemia = test system: RPMI-8226 leukemia
HCT-15 colon = test system: HCT-15 colon
SNB-75 CNS = test system: SNB-75 CNS
HL-60(TB) leukemia = test system: HL-60(TB) leukemia
PC-3 prostate = test system: PC-3 prostate
A498 renal = test system: A498 renal
SF-295 CNS = test system: SF-295 CNS
UACC-62 melanoma = test system: UACC-62 melanoma
OVCAR-4 ovarian = test system: OVCAR-4 ovarian
U251 glioblastoma = test system: U251 glioblastoma
CAKI-1 renal = test system: CAKI-1 renal
SK-MEL-28 melanoma = test system: SK-MEL-28 melanoma
NCI-H322M lung = test system: NCI-H322M lung
SF-539 CNS = test system: SF-539 CNS
SF-268 CNS = test system: SF-268 CNS
UACC-257 melanoma = test system: UACC-257 melanoma
NCI/ADR-RES ovarian = test system: NCI/ADR-RES ovarian
BT-549 breast = test system: BT-549 breast
NCI-H23 lung = test system: NCI-H23 lung
NCI-H522 lung = test system: NCI-H522 lung
NCI-H226 lung = test system: NCI-H226 lung
MDA-MB-231 breast = test system: MDA-MB-231 breast
IGROV1 ovarian = test system: IGROV1 ovarian
HOP-62 NSCLC = test system: HOP-62 NSCLC
K-562 leukemia = test system: K-562 leukemia
SW-620 colon = test system: SW-620 colon
TK-10 renal = test system: TK-10 renal
HOP-92 NSCLC = test system: HOP-92 NSCLC
COLO 205 colon = test system: COLO 205 colon
A549 NSCLC = test system: A549 NSCLC
MCF7 breast = test system: MCF7 breast
786-0 renal = test system: 786-0 renal
MDA-MB-468 breast = test system: MDA-MB-468 breast
DU-145 prostate = test system: DU-145 prostate
T-47D breast = test system: T-47D breast
OVCAR-3 ovarian = test system: OVCAR-3 ovarian
SN12C renal = test system: SN12C renal
SK-MEL-2 melanoma = test system: SK-MEL-2 melanoma
MDA-MB-435 melanoma = test system: MDA-MB-435 melanoma
SR leukemia = test system: SR leukemia
RXF 393 renal = test system: RXF 393 renal
EKVX NSCLC = test system: EKVX NSCLC
CCRF-CEM leukemia = test system: CCRF-CEM leukemia

## N[C@H](CCC(=O)N[C@@H](Cc1c[nH]c2ccccc12)C(=O)O)C(=O)O
MALME-3M melanoma
  GI50: > 100 µM
  TGI: > 100 µM
MOLT-4 leukemia
  GI50: > 100 µM
  TGI: > 100 µM
KM12 colon
  GI50: > 100 µM
  TGI: > 100 µM
HCC-2998 colon
  GI50: > 100 µM
  TGI: > 100 µM
NCI-H460 NSCLC
  GI50: > 100 µM
  TGI: > 100 µM
HCT-116 colon
  GI50: > 100 µM
  TGI: > 100 µM
SNB-19 CNS
  GI50: > 100 µM
  TGI: > 100 µM
OVCAR-5 ovarian
  GI50: > 100 µM
  TGI: > 100 µM
M14 melanoma
  GI50: > 100 µM
  TGI: > 100 µM
HS 578T breast
  GI50: > 100 µM
  TGI: > 100 µM
ACHN renal
  GI50: > 100 µM
  TGI: > 100 µM
LOX IMVI melanoma
  GI50: > 100 µM
  TGI: > 100 µM
SK-MEL-5 melanoma
  GI50: > 100 µM
  TGI: > 100 µM
HT29 colon
  GI50: > 100 µM
  TGI: > 100 µM
SK-OV-3 ovarian
  GI50: > 100 µM
  TGI: > 100 µM
UO-31 renal
  GI50: > 100 µM
  TGI: > 100 µM
RPMI-8226 leukemia
  GI50: > 100 µM
  TGI: > 100 µM
HCT-15 colon
  GI50: > 100 µM
  TGI: > 100 µM
SNB-75 CNS
  GI50: > 100 µM
  TGI: > 100 µM
HL-60(TB) leukemia
  GI50: > 100 µM
  TGI: > 100 µM
PC-3 prostate
  GI50: > 100 µM
  TGI: > 100 µM
A498 renal
  GI50: > 100 µM
  TGI: > 100 µM
SF-295 CNS
  GI50: > 100 µM
  TGI: > 100 µM
UACC-62 melanoma
  GI50: > 100 µM
  TGI: > 100 µM
OVCAR-4 ovarian
  GI50: > 100 µM
  TGI: > 100 µM
U251 glioblastoma
  GI50: > 100 µM
  TGI: > 100 µM
CAKI-1 renal
  GI50: > 100 µM
  TGI: > 100 µM
SK-MEL-28 melanoma
  GI50: > 100 µM
  TGI: > 100 µM
NCI-H322M lung
  GI50: > 100 µM
  TGI: > 100 µM
SF-539 CNS
  GI50: > 100 µM
  TGI: > 100 µM
SF-268 CNS
  GI50: > 100 µM
  TGI: > 100 µM
UACC-257 melanoma
  GI50: > 100 µM
  TGI: > 100 µM
NCI/ADR-RES ovarian
  GI50: > 100 µM
  TGI: > 100 µM
BT-549 breast
  GI50: > 100 µM
  TGI: > 100 µM
NCI-H23 lung
  GI50: > 100 µM
  TGI: > 100 µM
NCI-H522 lung
  GI50: > 100 µM
  TGI: > 100 µM
NCI-H226 lung
  GI50: > 100 µM
  TGI: > 100 µM
MDA-MB-231 breast
  GI50: > 100 µM
  TGI: > 100 µM
IGROV1 ovarian
  GI50: > 100 µM
  TGI: > 100 µM
HOP-62 NSCLC
  GI50: > 100 µM
  TGI: > 100 µM
K-562 leukemia
  GI50: > 100 µM
  TGI: > 100 µM
SW-620 colon
  GI50: > 100 µM
  TGI: > 100 µM
TK-10 renal
  GI50: > 100 µM
  TGI: > 100 µM
HOP-92 NSCLC
  GI50: > 100 µM
  TGI: > 100 µM
COLO 205 colon
  GI50: > 100 µM
  TGI: > 100 µM
A549 NSCLC
  GI50: > 100 µM
  TGI: > 100 µM
MCF7 breast
  GI50: > 100 µM
  TGI: > 100 µM
786-0 renal
  GI50: > 100 µM
  TGI: > 100 µM
MDA-MB-468 breast
  GI50: > 100 µM
  TGI: > 100 µM
DU-145 prostate
  GI50: > 100 µM
  TGI: > 100 µM
T-47D breast
  GI50: > 100 µM
  TGI: > 100 µM
OVCAR-3 ovarian
  GI50: > 100 µM
  TGI: > 100 µM
SN12C renal
  GI50: > 100 µM
  TGI: > 100 µM
SK-MEL-2 melanoma
  GI50: > 100 µM
  TGI: > 100 µM
MDA-MB-435 melanoma
  GI50: > 100 µM
  TGI: > 100 µM
SR leukemia
  GI50: > 100 µM
  TGI: > 100 µM
RXF 393 renal
  GI50: > 100 µM
  TGI: > 100 µM
EKVX NSCLC
  GI50: > 100 µM
  TGI: > 100 µM
CCRF-CEM leukemia
  GI50: > 100 µM
  TGI: > 100 µM
